In ChEMBL document CHEMBL3988442, “University of Dundee, Small-Polar-MMV Screening Library” (2021):
“And” between values parts separate entries of the source, which are not always exact repeats. Equal values may be shown once.

How the values were obtained:
[1] = system: Leishmania donovani; experiment: Leishmania intramacrophage assay; type: functional, organism-based; conditions: for IC50: Leishmania donovani
[2] = biological target: Tryptophan--tRNA ligase (Mycobacterium tuberculosis (strain ATCC 25618 / H37Rv), UniProt P9WFT3); experiment: Biochemical assay for Mt-TrpRS; type: functional
[3] = biological target: T1, Histidine--tRNA ligase (Leishmania infantum, UniProt A4I591); experiment: Leishmania infantum Histidine tRNA synthetase (LdHisRS); type: functional
T1 sequence (A4I591 whole entry): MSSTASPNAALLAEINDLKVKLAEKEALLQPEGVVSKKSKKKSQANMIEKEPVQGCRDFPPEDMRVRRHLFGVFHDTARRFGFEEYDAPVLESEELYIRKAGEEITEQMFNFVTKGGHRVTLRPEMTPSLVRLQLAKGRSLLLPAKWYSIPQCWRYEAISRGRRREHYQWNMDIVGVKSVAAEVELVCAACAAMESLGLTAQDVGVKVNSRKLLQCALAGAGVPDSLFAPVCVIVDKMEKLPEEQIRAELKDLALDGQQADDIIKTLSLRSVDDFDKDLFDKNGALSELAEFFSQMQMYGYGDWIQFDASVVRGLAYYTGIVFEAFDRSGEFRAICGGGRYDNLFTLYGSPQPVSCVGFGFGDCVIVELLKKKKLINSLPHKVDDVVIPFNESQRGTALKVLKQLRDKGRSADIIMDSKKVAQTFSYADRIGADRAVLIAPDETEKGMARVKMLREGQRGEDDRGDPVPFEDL

[4] = biological target: ClpP1P2 (Mycobacterium tuberculosis (strain ATCC 25618 / H37Rv), UniProt P9WPC3+P9WPC5); experiment: in vitro assay to detect presence of AMC directly proportional to the activity of ClpP1P2. GHDDI collaboration.; type: functional
[5] = system: Plasmodium falciparum; experiment: Calibr Malaria Delayed Death Assay SOP; type: functional, organism-based; conditions: for IC50: Plasmodium falciparum
[6] = In vitro enzyme assay to detect hydrolysis of chlorophenol red-beta-D-[…] directly proportional to the number of Toxoplasma stably expressing beta-galactosidase; type: functional, organism-based, Toxoplasma gondii; conditions: for IC50: Toxoplasma gondii
[7] = microbe, parasite or virus in culture; conditions: Mycobacterium tuberculosis, 96 h, read-out: pIC50 (converted)
[8] = microbe, parasite or virus in culture; conditions: Mycobacterium tuberculosis, 72 h, read-out: pIC50 (converted)
[9] = system: Schistosoma mansoni; experiment: High throughput screening of compounds against Schistosoma mansoni motility; type: functional; parameters: dose or concentration left out as unconfirmed

SMILES | IC50 [3] | IC50 [7] [µM] | IC50 [8] [µM] | other results
COC(=O)c1sc2nc3c(c(C(F)(F)F)c2c1N)CN(C(C)=O)CC3 | – | – | – | IC50 [1]: > 50.1 µM
CC(C)n1nnc2c(sc3nc(N4CCOCC4)c4c(c32)CCC4)c1=O | – | – | – | IC50 [1]: > 50.1 µM
CN1CCCC(Cc2cncc(Br)c2)CC1 (configuration not stated) | – | – | – | IC50 [1]: > 50.1 µM
CC1CCCN(Cc2coc(-c3cccc(F)c3)n2)C1 (configuration not stated) | – | – | – | IC50 [1]: > 50.1 µM
Cc1c(-c2cc(C(F)F)nc3sc(C(N)=O)c(N)c23)cnn1C | – | – | – | IC50 [1]: > 50.1 µM
Cc1ccc(-c2ncc(CNc3cnccc3CO)s2)o1 | – | – | – | IC50 [1]: > 50.1 µM
CCN1CCCC(O)(c2nc(C)c(CCOc3ccccc3F)s2)CC1 (configuration not stated) | – | – | – | IC50 [1]: > 50.1 µM
Cc1csc(C2(NCC(O)COc3ccc(F)cc3)CCC2)n1 (configuration not stated) | – | – | – | IC50 [1]: > 50.1 µM
COCCNc1nc(C2CCCC2)nc2c1CCNCC2 | – | – | – | pIC50 [1]: 4.615; IC50 [1]: 17.4 µM
Cn1nccc1C1CCN(Cc2csc(-c3ncccn3)n2)CC1 | – | – | – | IC50 [1]: > 50.1 µM
c1ccc(COC2CCN(c3cncc(-n4cccn4)n3)CC2)cc1 | – | – | – | IC50 [1]: > 50.1 µM
FC(F)(F)c1cc(-c2cccs2)nc(N2CCN3CCCC3C2)n1 (configuration not stated) | – | – | – | IC50 [1]: > 50.1 µM
CCNC(=O)c1ccc2ccc(N(CC)CC)n2c1 | – | – | – | IC50 [1]: > 50.1 µM
Cc1nc(N(Cc2ccncc2)CC2CCCO2)c2ccsc2n1 (configuration not stated) | – | – | – | IC50 [1]: > 50.1 µM
N#CCCSc1sc2c(O)cc(O)nc2c1C#N | 18.7 µM and 27.5 µM | – | – | IC50 [2]: > 195 µM
CNc1cc2c(nn1)CCN(C(=O)c1coc(Br)c1)C2 | 51.3 µM and 66.4 µM | – | – | IC50 [4]: > 100 µM
Cn1cc(-c2c(C#N)c(N)nc3c2CCc2[nH]ccc2-3)cn1 | 11.2 µM and 16.9 µM | – | – | IC50 [4]: > 100 µM
COc1ccccc1C1(CNCc2cccc(C#N)c2)CCOCC1 | 70.8 µM and 65.6 µM | – | – | pIC50 [5]: 5.883; IC50 [5]: 1.49 µM
Cc1c(CN2CCOCC2)c(O)n(CCO)c(=O)c1C#N | 35.3 µM and 35.6 µM | – | – | IC50 [2]: > 195 µM
COc1ccc(NC(=O)Cn2nc(C)c(C(C)=O)c2C)cc1 | 17.2 µM and 14 µM | 19 | 22.1 | IC50 [6]: 3.61 µM; pIC50 [5]: 6.455; IC50 [5]: 0.421 µM

SMILES | IC50 [3] | IC50 [7] [µM] | IC50 [8] [µM] | other results
CCC[C@@H]1CN(C(=O)c2cc3ccccc3cc2O)C[C@H]1N(C)C | 38 µM and 45 µM | – | – | IC50 [4]: > 100 µM
Brc1ccc(C2(CNCc3cc[nH]c3)CCOCC2)cc1 | 39.5 µM and 23.5 µM | – | – | pIC50 [5]: 6.139; IC50 [5]: 0.542 µM
COc1ccccc1C1(CNCc2cccc(O)c2)CCOCC1 | 1.13 µM and 1.34 µM (2×) and 1.43 µM | – | – | pIC50 [5]: 6.352; IC50 [5]: 0.31 µM
CCn1nc2c(cc1=O)CN(c1ncnc3ccsc13)CC2 | 54.3 µM and 39.8 µM | – | – | IC50 [6]: 11.2 µM
CCC1CN(CC(=O)NCCN2CCCCCC2)c2ccccc2S1 (configuration not stated) | 39.1 µM and 39.7 µM | > 50.1 | 44.8 | pIC50 [5]: 5.947; IC50 [5]: 1.33 µM
COc1ccccc1C(=O)NC(c1ccccn1)[C@H]1CC[C@H](CN)CC1 (some centres not stated) | 9.74 µM and 9.59 µM | – | – | IC50 [2]: > 195 µM
Cc1cc(NC(=O)CN2CCc3nn(C)c(=O)cc3C2)on1 | 71.2 µM and 54.8 µM | – | – | Percent Effect [9]: -32.24%
CCCC(O)CNc1cncc(Br)c1 (configuration not stated) | > 100 µM | 21.7 | > 50.1 | IC50 [2]: > 195 µM
Clc1ccc(C2(CNC3=NCCN3)CCCCC2)cc1.I | 85 µM and 71.6 µM | – | – | pIC50 [5]: 6.717 and 7.044
Cn1ccc2c(-c3cc(N4CCCCC4)ncn3)ccnc21 | 54.3 µM and 45.7 µM | – | – | IC50 [4]: > 100 µM
CC(=O)Nc1ccc2nc(CN(C)Cc3snnc3C)ccc2c1 | 51.3 µM and 57.2 µM | – | – | IC50 [4]: > 100 µM
Clc1cc(CN2CCCN3CCCC3C2)c2ncccc2c1 (configuration not stated) | 26.6 µM and 21.9 µM | 12.2 | 8.48 | pIC50 [5]: 5.897; IC50 [5]: 1.3 µM
Cc1ccc(S(=O)(=O)N2CCc3nc(C4CCNCC4)ncc3C2)cc1 | > 100 µM and 97.1 µM | 6.39 | > 50.1 | –
Cc1nccn1CCCn1cncc1-c1ccc2c(c1)CCC(C)N2C (configuration not stated) | 6.86 µM and 7.15 µM | – | – | IC50 [4]: > 100 µM
CCN1c2ccc(-c3cncn3CCCn3ccnc3C)cc2CC1C.Cl (configuration not stated) | 39.6 µM and 37.5 µM | 46.6 | 42.9 | IC50 [4]: > 100 µM
NC(=O)c1cnc2n1CCN(C(=O)c1ccc(Cn3cccc3)cc1)C2 | 22.7 µM and 17.3 µM | – | – | IC50 [4]: > 100 µM
Cc1nc(CN2CCc3nc(N4CCCC4)nc(NC(C)C)c3C2)cs1 | 14.7 µM and 12.1 µM | 25.4 | 41.6 | –
Cc1nc(CN2CCc3nc(NC(C)C)nc(C)c3C2)cs1 | 64.5 µM and 57.7 µM | > 50.1 | > 50.1 | –
c1ccc2sc(N3CCCN(c4ncnc5c4CCNC5)CC3)nc2c1 | 76.9 µM and 73.9 µM | – | – | pIC50 [5]: 5.791; IC50 [5]: 1.56 µM
O=C(Cn1c(-c2ccco2)cc2cccnc21)N1CCCC1 | 21.5 µM and 27.9 µM | – | – | IC50 [4]: > 100 µM

SMILES | IC50 [3] | IC50 [7] [µM] | IC50 [8] [µM] | other results
Cn1nc2c(cc1=O)CN(CCc1nc3ccccc3c(=O)[nH]1)CC2 | 67.7 µM and 54.2 µM | – | – | Percent Effect [9]: -34.74%
Fc1cccc(N2C[C@H]3CCN(c4cccnc4)C[C@H]3C2)c1 | 40.6 µM and 35.1 µM | > 50.1 | 45.2 | –
Cc1cccnc1[C@H](C)Nc1nc(-c2cccnc2)nc2c1CNC2 | 36.4 µM and 22.4 µM | – | – | pIC50 [5]: 5.936; IC50 [5]: 0.951 µM
CC(=O)c1c(C)nn(CC(=O)Nc2ccc(Br)cc2)c1C | 6.08 µM and 7.13 µM | – | 8.6 | IC50 [6]: 7.32 µM
NC(=O)C1=NC2=NS(=O)(=O)c3ccccc3N2N1Cc1ccc(Cl)cc1 | 62.9 µM and 43.4 µM | 26.4 | 45.4 | –
O=C(Nc1nccs1)c1csc(NC2CCCC2)n1 | 30.3 µM and 43.9 µM | 34.5 | 28.4 | IC50 [6]: 4.36 µM
c1ccc(Oc2cccc(OC34CCCN(CC3)C4)c2)cc1 (configuration not stated) | 53.2 µM and 46.4 µM | 15.9 | 18.1 | –
CCn1nc2c(cc1=O)CN(c1ncnc3sccc13)CC2 | 15.5 µM and 11.5 µM | – | – | IC50 [6]: 15 µM
c1ccc(Oc2ccc(OC34CCCN(CC3)C4)cc2)cc1 (configuration not stated) | 39.4 µM and 40.6 µM | 40.7 | 23.7 | –
Cc1[nH]/c(=N\C(=O)c2csc(NC3CCCC3)n2)sc1C | 18 µM and 18.2 µM | > 50.1 | 19.8 | pIC50 [6]: 5.387; IC50 [6]: 3.16 µM
Cc1cnc2n(c1=O)CC(C(=O)Nc1cccc3cccnc13)CS2 (configuration not stated) | 78.6 µM and 68.6 µM | – | – | Percent Effect [9]: -85.49%
c1ccc(-c2cc(CN3C[C@@H]4CC[C@H](C3)N(CC3CCC3)C4)on2)cc1 | 32.5 µM and 36.9 µM | 13.3 | 8.42 | –
COCC(O)CNc1cncc(Br)c1 (configuration not stated) | > 100 µM | – | – | IC50 [2]: > 195 µM
O=C(c1cc(-c2ccco2)cs1)N1CCCC1 | > 100 µM and 53 µM | 33 | 8 | –
Cn1cc(-c2c(C#N)c(N)nc3c2CCc2[nH]ccc2-3)cc1C#N | 28 µM and 21.7 µM | – | – | IC50 [4]: > 100 µM
CN(CC1CCN(c2ccccc2)C1)c1ccc(Cn2ccnc2)cn1 (configuration not stated) | 91.9 µM and 98.7 µM | 27.4 | 27.7 | –
Cc1cc(C)n(CC(=O)N2C[C@@H]3CC[C@H](C2)N(CC2CCC2)C3)c(=O)n1 | 16.8 µM and 12 µM | – | – | IC50 [4]: > 100 µM
CCCN1C[C@H]2CC[C@@H]1CN(Cc1ccc(-n3cccn3)cc1)C2 | 33.2 µM and 35 µM | 21.4 | 4.84 | –
c1cncc(-c2ccc3c(c2)CCC32CCN(Cc3nccs3)CC2)c1 | 75.2 µM and 52.4 µM | 36.3 | 36.1 | –
